Earlier results, collected in PubChem BioAssay AID1259409 (Chemical Carcinogenesis Research Information System (CCRIS), 2018).

System: rodent chemically induced tumor inhibition, incidence and multiplicity
Test: CCRIS tumor inhibitor studies
Conditions: Route [Inhibitor]: ORAL, Species: RAT; for tumour outcome (control, treated, inhibition, significance): Promoter: NONE USED

CC(=O)OC/C=C(C)/C=C/C=C(C)/C=C/C1=C(C)CCCC1(C)C
outcome (Carcinogen: N-BIS-(2-HYDROXYPROPYL)NITROSAMINE [53609-64-6], Dose [Inhibitor]: 0, 0.1% IN DIET 4 WK BEGINNING 1 WK POST CARCINOGEN DOSE (STUDY DURATION: 5 WK), Strain/Sex: F344/DUCRJ/MALE, Target Tissue: Type of Lesion: THYROID GLAND: ADENOMATOUS GROWTH PATTERN, Dose [Carcinogen]: 2800 MG/KG BW ONCE (STUDY DURATION: 5 WK), Promoter: NONE): 0%, 0%, 0%, not significant | tumour outcome (control, treated, inhibition, significance) (Carcinogen: N-METHYL-N-NITROSOUREA, 684-93-5, Dose [Inhibitor]: 0, 328 MG/KG DIET FOR 88 D BEGINNING 2 D POST CARCINOGEN DOSE (STUDY DURATION: 90 D), Strain/Sex: SPRAGUE-DAWLEY/FEMALE, Target Tissue: Type of Lesion: MAMMARY GLAND: ADENOCARCINOMA, Dose [Carcinogen]: 45 MG/KG BW ONCE): 100%, 73%, 27%, p<0.05 | tumour outcome (control, treated, inhibition, significance) (Carcinogen: N-METHYL-N-NITROSOUREA, 684-93-5, Dose [Inhibitor]: 0, 328 MG/KG OF DIET BEGINNING 2 D POST CARCINOGEN DOSE AND CONTINUING FOR DURATION OF STUDY (STUDY DURATION: 90 D), Strain/Sex: SPRAGUE-DAWLEY/FEMALE, Target Tissue: Type of Lesion: MAMMARY GLAND: ADENOCARCINOMA, Dose [Carcinogen]: 45 MG/KG BW ONCE AT 50 D OF AGE): 100%, 80%, 20%, not calculated | tumour outcome (control, treated, inhibition, significance) (Carcinogen: N-METHYL-N-NITROSOUREA, 684-93-5, Dose [Inhibitor]: 0, 328 MG/KG OF DIET FOR DURATION OF STUDY BEGINNING 1 WK PRIOR TO CARCINOGEN TREATMENT (STUDY DURATION: 117 D), Strain/Sex: SPRAGUE-DAWLEY /FEMALE, Target Tissue: Type of Lesion: MAMMARY GLAND: ADENOCARCINOMA, Dose [Carcinogen]: 50 MG/KG BW ONCE): 100%, 84%, 16%, not significant | tumour outcome (control, treated, inhibition, significance) (Carcinogen: N-METHYL-N-NITROSOUREA, 684-93-5, Dose [Inhibitor]: 0.8 MMOL/KG DIET DAILY STARTING 12 D AFTER CARCINOGEN TREATMENT THROUGH ABOUT 8 MO AFTER FIRST CARCINOGEN DOSE (STUDY DU, Strain/Sex: F344/MALE, Target Tissue: Type of Lesion: COLON: ADENOCARCINOMA, Dose [Carcinogen]: 2.5 MG 1/WK FOR 2 WK): 5/39 (13%), 4/29 (14%), -8%, not significant | tumour outcome (control, treated, inhibition, significance) (Carcinogen: N-METHYL-N-NITROSOUREA, 684-93-5, Dose [Inhibitor]: 0.8 MMOL/KG DIET DAILY STARTING 12 D AFTER CARCINOGEN TREATMENT THROUGH ABOUT 8 MO AFTER FIRST CARCINOGEN DOSE (STUDY DU, Strain/Sex: F344/MALE, Target Tissue: Type of Lesion: COLON: ADENOMA, Dose [Carcinogen]: 2.5 MG 1/WK FOR 2 WK): 16/39 (41%), 9/29 (31%), 24%, not significant | tumour outcome (control, treated, inhibition, significance) (Carcinogen: N-METHYL-N-NITROSOUREA, 684-93-5, Dose [Inhibitor]: 1.0 MM IN DIET DAILY (328 MG/KG DIET) STARTING D 60 OF AGE UNTIL END OF STUDY (STUDY DURATION: 4 MO), Strain/Sex: SPRAGUE-DAWLEY/FEMALE, Target Tissue: Type of Lesion: MAMMARY GLAND: CARCINOMA, Dose [Carcinogen]: 2.5 MG/100 G BODY WEIGHT IN 0.9% NACL SOLUTION ADMINISTERED AT D 50 AND 57 OF AGE): 87%, 54%, 38%, p<0.01 | tumour outcome (control, treated, inhibition, significance) (Carcinogen: N-METHYL-N-NITROSOUREA, 684-93-5, Dose [Inhibitor]: 1 MMOL/KG DIET DAILY STARTING 3 D AFTER LAST CARCINOGEN DOSE THROUGH END OF STUDY (STUDY DURATION: 129 D), Strain/Sex: SPRAGUE-DAWLEY/FEMALE, Target Tissue: Type of Lesion: MAMMARY GLAND: TUMOR, Dose [Carcinogen]: 50 MG/KG BW AT BOTH 50 AND 57 D OF AGE): 17/17 (100%), 12/18 (67%), 33%, p<0.001 | tumour outcome (control, treated, inhibition, significance) (Carcinogen: N-METHYL-N-NITROSOUREA, 684-93-5, Dose [Inhibitor]: 1 MMOL/KG DIET DAILY STARTING 3 D AFTER LAST CARCINOGEN DOSE THROUGH END OF STUDY (STUDY DURATION: 182 D), Strain/Sex: SPRAGUE-DAWLEY/FEMALE, Target Tissue: Type of Lesion: MAMMARY GLAND: TUMOR, Dose [Carcinogen]: 15 MG/KG BW AT BOTH 50 AND 57 D OF AGE): 12/40 (30%), 5/39 (13%), 57%, not significant | tumour outcome (control, treated, inhibition, significance) (Carcinogen: N-METHYL-N-NITROSOUREA, 684-93-5, Dose [Inhibitor]: 2 MMOL/KG DIET DAILY STARTING 3 D AFTER LAST CARCINOGEN DOSE THROUGH END OF STUDY (STUDY DURATION: 129 D), Strain/Sex: SPRAGUE-DAWLEY/FEMALE, Target Tissue: Type of Lesion: MAMMARY GLAND: TUMOR, Dose [Carcinogen]: 50 MG/KG BW AT BOTH 50 AND 57 D OF AGE): 17/17 (100%), 2/16 (13%), 87%, p<0.001 | tumour outcome (control, treated, inhibition, significance) (Carcinogen: N-METHYL-N-NITROSOUREA, 684-93-5, Dose [Inhibitor]: 2 MMOL/KG DIET DAILY STARTING 3 D AFTER LAST CARCINOGEN DOSE THROUGH END OF STUDY (STUDY DURATION: 182 D), Strain/Sex: SPRAGUE-DAWLEY/FEMALE, Target Tissue: Type of Lesion: MAMMARY GLAND: TUMOR, Dose [Carcinogen]: 15 MG/KG BW AT BOTH 50 AND 57 D OF AGE): 12/40 (30%), 0/40 (0%), 100%, p<0.001 | tumour outcome (control, treated, inhibition, significance) (Carcinogen: N-METHYL-N-NITROSOUREA, 684-93-5, Dose [Inhibitor]: 300 MG/KG OF DIET DAILY STARTING 7 D AFTER CARCINOGEN TREATMENT AND CONTINUING FOR DURATION OF STUDY (STUDY DURATION: 13, Strain/Sex: SPRAGUE-DAWLEY/FEMALE, Target Tissue: Type of Lesion: MAMMARY GLAND: ADENOCARCINOMA, Dose [Carcinogen]: 50 MG/KG BW IN 0.9% SALINE ONCE AT 50 D OF AGE): 25/25 (100%), 23/25 (92%), 8%, not significant | tumour outcome (control, treated, inhibition, significance) (Carcinogen: N-METHYL-N-NITROSOUREA, 684-93-5, Dose [Inhibitor]: 328 MG/KG DIET DAILY FOR 4 MO STARTING 10 D AFTER START OF CARCINOGEN TREATMENT AND CONTINUING FOR DURATION OF STUDY (ST, Strain/Sex: SPRAGUE-DAWLEY/FEMALE, Target Tissue: Type of Lesion: MAMMARY GLAND: ADENOCARCINOMA, Dose [Carcinogen]: 2.5 MG/100 G BW IN 0.9% SALINE AND ACIDIFIED (PH 4 TO 5) WITH ACETIC ACID AT AGES 50 AND 57 D): 88%, 53%, 40%, p<0.01 | tumour outcome (control, treated, inhibition, significance) (Carcinogen: N-METHYL-N-NITROSOUREA, 684-93-5, Dose [Inhibitor]: 328 MG/KG IN DIET BEGINNING AT D 60 (STUDY DURATION: 129 D), Strain/Sex: SPRAGUE-DAWLEY/FEMALE, Target Tissue: Type of Lesion: MAMMARY GLAND: TUMOR, Dose [Carcinogen]: 2.5 MG/100 G AT 50 AND 57 D OF AGE): 22/30 (73%), 11/30 (37%), 49%, p<0.005 | tumour outcome (control, treated, inhibition, significance) (Carcinogen: N-METHYL-N-NITROSOUREA, 684-93-5, Dose [Inhibitor]: 328 MG/KG IN DIET BEGINNING AT D 60 (STUDY DURATION: 175 D), Strain/Sex: SPRAGUE-DAWLEY/FEMALE, Target Tissue: Type of Lesion: MAMMARY GLAND: TUMOR, Dose [Carcinogen]: 1.25 MG/100 G BODY WEIGHT IN 0.9% NACL SOLUTION ADMINISTERED AT D 50 AND 57 OF AGE): 8/30 (27%), 3/30 (10%), 63%, p<0.01 | tumour outcome (control, treated, inhibition, significance) (Dose [Inhibitor]: 3 UMOL/G DIET, Strain/Sex: SPRAGUE-DAWLEY/FEMALE, Target Tissue: Type of Lesion: LIVER: TUMOR, Dose [Carcinogen]: 1 PPM IN DIET): 76%, 79%, -4%, not calculated | tumour outcome (control, treated, inhibition, significance) (Dose [Inhibitor]: 3 UMOL/G DIET, Strain/Sex: SPRAGUE-DAWLEY/MALE, Target Tissue: Type of Lesion: LIVER: TUMOR, Dose [Carcinogen]: 1 PPM IN DIET): 89%, 88%, 1%, not calculated | tumour outcome (control, treated, inhibition, significance) (Dose [Inhibitor]: 30 UMOL/G DIET, Strain/Sex: SPRAGUE-DAWLEY/FEMALE, Target Tissue: Type of Lesion: LIVER: TUMOR, Dose [Carcinogen]: 1 PPM IN DIET): 76%, 84%, -11%, not calculated | tumour outcome (control, treated, inhibition, significance) (Dose [Inhibitor]: 30 UMOL/G DIET, Strain/Sex: SPRAGUE-DAWLEY/MALE, Target Tissue: Type of Lesion: LIVER: TUMOR, Dose [Carcinogen]: 1 PPM IN DIET): 89%, 92%, -3%, not calculated
